Assays:
Settings in all cases: incubation time: 72 h
BT-474 [1] = assay: drug sensitivity score (DSS), CellTox Green (DSS (AUC-based score)); higher = stronger drug effect (viability inhibition or cytotoxicity); extreme values may be limits of the assay
In short: (§1)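 For 72 h, breast cancer cell lines seeded at 20 µl suspension per well in 384-well plates were incubated with compound at 5 concentrations in 10-fold steps spanning a 10,000-fold range that differed by compound. The first reading was CellTox Green fluorescence at 485/520 nm, and the second was CellTiter-Glo luminescence after 10 min at room temperature. Both were normalised per plate to 0.1 % DMSO and a positive kill control, and the drug sensitivity score was obtained from the area under the fitted dose-response curve.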

HCC1937 [2] = assay: as above
In short: as §1

MDA-MB-436 [3] = assay: as above
In short: as §1

HCC1599 [4] = assay: as above
In short: as §1

BT-549 [5] = assay: as above
In short: as §1

DU-4475 [6] = assay: as above
In short: as §1

HDQ-P1 [7] = assay: normalised viability (% of control), CellTiter-Blue; higher = more viable cells (about 100 = DMSO control)
Description: (§2)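 DSRT, CellTiter-Blue viability, 72 h incubation. Signal is normalised to DMSO and benzethonium chloride controls. Value is the normalised response at dose 7.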

MDA-MB-453 [8] = assay: as above
Description: as §2

CAL-51 [9] = assay: as above
Description: as §2

CAL-148 [10] = assay: as above
Description: as §2

CAL-85-1 [11] = assay: as above
Description: as §2

DU-4475 [12] = assay: as above
Description: as §2

HDQ-P1 [13] = assay: normalised viability (% of control), CellTiter-Blue; higher = more viable cells (about 100 = DMSO control); remark: listed apart in the source
In short: (§3)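 Seeded at 20 µl suspension per well onto compound-loaded 384-well plates, breast cancer cell lines were incubated 72 h. CellTiter-Blue fluorescence at 560/590 nm was then read, with each plate normalised to vehicle (100) and a positive kill control (0). Normalised viability is reported at a single listed concentration of the series.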

SK-BR-3 = assay: as above
In short: as §3

BT-474 [14] = assay: as above
In short: as §3

HCC1937 [15] = assay: as above
In short: as §3

MDA-MB-453 [16] = assay: as above; remark: listed apart in the source
In short: as §3

MDA-MB-436 [17] = assay: as above
In short: as §3

CAL-120 = assay: as above
In short: as §3

HCC1599 [18] = assay: as above
In short: as §3

CAL-51 [19] = assay: as above; remark: listed apart in the source
In short: as §3

Hs578T = assay: as above
In short: as §3

CAL-148 [20] = assay: as above; remark: listed apart in the source
In short: as §3

MFM-223 = assay: as above
In short: as §3

CAL-85-1 [21] = assay: as above; remark: listed apart in the source
In short: as §3

MDA-MB-468 = assay: as above
In short: as §3

BT-549 [22] = assay: as above
In short: as §3

HCC1143 = assay: as above
In short: as §3

MDA-MB-231 = assay: as above
In short: as §3

DU-4475 [23] = assay: as above; remark: listed apart in the source
In short: as §3

Nc1ncnc2c1c(COc1cccc(Cl)c1)nn2C1CCOCC1
drug sensitivity score (BT-474 [1]): 0
drug sensitivity score (HCC1937 [2]): 0
drug sensitivity score (MDA-MB-436 [3]): 0
drug sensitivity score (HCC1599 [4]): 0
drug sensitivity score (BT-549 [5]): 0
drug sensitivity score (DU-4475 [6]): 0

COc1ccc(-c2ccc3c(N4CCOC[C@@H]4C)nc(N4CCOC[C@@H]4C)nc3n2)cc1CO [AZD8055]
drug sensitivity score (BT-474 [1]): 2.99
drug sensitivity score (HCC1937 [2]): 0
drug sensitivity score (MDA-MB-436 [3]): 0
drug sensitivity score (HCC1599 [4]): 0
drug sensitivity score (BT-549 [5]): 0
drug sensitivity score (DU-4475 [6]): 0
normalised viability (HDQ-P1 [7]; 1000 nM): 27.2%
normalised viability (MDA-MB-453 [8]; 1000 nM): 14.4%
normalised viability (CAL-51 [9]; 1000 nM): 10.8%
normalised viability (CAL-148 [10]; 1000 nM): 5.6%
normalised viability (CAL-85-1 [11]; 1000 nM): 23.8%
normalised viability (DU-4475 [12]; 1000 nM): 15.2%
normalised viability (HDQ-P1 [13]; 3 nM): 83.4%
normalised viability (SK-BR-3; 10 nM): 72.5%
normalised viability (BT-474 [14]; 10 nM): 108%
normalised viability (HCC1937 [15]; 10 nM): 77.2%
normalised viability (MDA-MB-453 [16]; 3 nM): 94.6%
normalised viability (MDA-MB-436 [17]; 10 nM): 98.3%
normalised viability (CAL-120; 10 nM): 91.4%
normalised viability (HCC1599 [18]; 10 nM): 89.3%
normalised viability (CAL-51 [19]; 3 nM): 88.2%
normalised viability (Hs578T; 10 nM): 91.1%
normalised viability (CAL-148 [20]; 3 nM): 89.3%
normalised viability (MFM-223; 10 nM): 71.9%
normalised viability (CAL-85-1 [21]; 3 nM): 85.1%
normalised viability (MDA-MB-468; 10 nM): 98.2%
normalised viability (BT-549 [22]; 10 nM): 92.5%
normalised viability (HCC1143; 10 nM): 100%
normalised viability (MDA-MB-231; 10 nM): 80.7%
normalised viability (DU-4475 [23]; 3 nM): 95.8%

C[C@]12CC[C@H](O)CC1=CC[C@@H]1[C@@H]2CC[C@]2(C)C(c3cccnc3)=CC[C@@H]12 [Abiraterone]
drug sensitivity score (BT-474 [1]): 0
drug sensitivity score (HCC1937 [2]): 0
drug sensitivity score (MDA-MB-436 [3]): 0
drug sensitivity score (HCC1599 [4]): 0
drug sensitivity score (BT-549 [5]): 0
drug sensitivity score (DU-4475 [6]): 0
normalised viability (HDQ-P1 [7]; 500 nM): 112%
normalised viability (MDA-MB-453 [8]; 500 nM): 92.3%
normalised viability (CAL-51 [9]; 500 nM): 103%
normalised viability (CAL-148 [10]; 500 nM): 94.7%
normalised viability (CAL-85-1 [11]; 500 nM): 77.2%
normalised viability (DU-4475 [12]; 500 nM): 94.2%
normalised viability (HDQ-P1 [13]; 1.5 nM): 104%
normalised viability (SK-BR-3; 5 nM): 97.7%
normalised viability (BT-474 [14]; 5 nM): 116%
normalised viability (HCC1937 [15]; 5 nM): 110%
normalised viability (MDA-MB-453 [16]; 1.5 nM): 104%
normalised viability (MDA-MB-436 [17]; 5 nM): 101%
normalised viability (CAL-120; 5 nM): 81%
normalised viability (HCC1599 [18]; 5 nM): 104%
normalised viability (CAL-51 [19]; 1.5 nM): 104%
normalised viability (Hs578T; 5 nM): 101%
normalised viability (CAL-148 [20]; 1.5 nM): 91.5%
normalised viability (MFM-223; 5 nM): 102%
normalised viability (CAL-85-1 [21]; 1.5 nM): 93.2%
normalised viability (MDA-MB-468; 5 nM): 105%
normalised viability (BT-549 [22]; 5 nM): 99.7%
normalised viability (HCC1143; 5 nM): 67.2%
normalised viability (MDA-MB-231; 5 nM): 86.8%
normalised viability (DU-4475 [23]; 1.5 nM): 84.6%

CN(C)CCN1C(=O)c2cccc3cc(N)cc(c23)C1=O [Amonafide]
drug sensitivity score (BT-474 [1]): 0
drug sensitivity score (HCC1937 [2]): 0
drug sensitivity score (MDA-MB-436 [3]): 11.2
drug sensitivity score (HCC1599 [4]): 0
drug sensitivity score (BT-549 [5]): 0
drug sensitivity score (DU-4475 [6]): 0
normalised viability (HDQ-P1 [7]; 1000 nM): 93.8%
normalised viability (MDA-MB-453 [8]; 1000 nM): 81.7%
normalised viability (CAL-51 [9]; 1000 nM): 99.1%
normalised viability (CAL-148 [10]; 1000 nM): 74.5%
normalised viability (CAL-85-1 [11]; 1000 nM): 84%
normalised viability (DU-4475 [12]; 1000 nM): 86.8%
normalised viability (HDQ-P1 [13]; 3 nM): 98.5%
normalised viability (SK-BR-3; 10 nM): 99.9%
normalised viability (BT-474 [14]; 10 nM): 114%
normalised viability (HCC1937 [15]; 10 nM): 91.8%
normalised viability (MDA-MB-453 [16]; 3 nM): 106%
normalised viability (MDA-MB-436 [17]; 10 nM): 111%
normalised viability (CAL-120; 10 nM): 82%
normalised viability (HCC1599 [18]; 10 nM): 98.2%
normalised viability (CAL-51 [19]; 3 nM): 112%
normalised viability (Hs578T; 10 nM): 113%
normalised viability (CAL-148 [20]; 3 nM): 88.8%
normalised viability (MFM-223; 10 nM): 92.1%
normalised viability (CAL-85-1 [21]; 3 nM): 91.6%
normalised viability (MDA-MB-468; 10 nM): 105%
normalised viability (BT-549 [22]; 10 nM): 84.9%
normalised viability (HCC1143; 10 nM): 83.6%
normalised viability (MDA-MB-231; 10 nM): 97.2%
normalised viability (DU-4475 [23]; 3 nM): 100%

CC(C)(C#N)c1cc(Cn2cncn2)cc(C(C)(C)C#N)c1 [Anastrozole]
drug sensitivity score (BT-474 [1]): 0
drug sensitivity score (HCC1937 [2]): 0
drug sensitivity score (MDA-MB-436 [3]): 0
drug sensitivity score (HCC1599 [4]): 0
drug sensitivity score (BT-549 [5]): 0
drug sensitivity score (DU-4475 [6]): 0
normalised viability (HDQ-P1 [7]; 1000 nM): 84.2%
normalised viability (MDA-MB-453 [8]; 1000 nM): 105%
normalised viability (CAL-51 [9]; 1000 nM): 93.9%
normalised viability (CAL-148 [10]; 1000 nM): 90.4%
normalised viability (CAL-85-1 [11]; 1000 nM): 90.8%
normalised viability (DU-4475 [12]; 1000 nM): 91.3%
normalised viability (HDQ-P1 [13]; 3 nM): 102%
normalised viability (SK-BR-3; 10 nM): 95.1%
normalised viability (BT-474 [14]; 10 nM): 110%
normalised viability (HCC1937 [15]; 10 nM): 90.3%
normalised viability (MDA-MB-453 [16]; 3 nM): 104%
normalised viability (MDA-MB-436 [17]; 10 nM): 109%
normalised viability (CAL-120; 10 nM): 84.3%
normalised viability (HCC1599 [18]; 10 nM): 98%
normalised viability (CAL-51 [19]; 3 nM): 112%
normalised viability (Hs578T; 10 nM): 99.4%
normalised viability (CAL-148 [20]; 3 nM): 93.3%
normalised viability (MFM-223; 10 nM): 96.9%
normalised viability (CAL-85-1 [21]; 3 nM): 93.4%
normalised viability (MDA-MB-468; 10 nM): 102%
normalised viability (BT-549 [22]; 10 nM): 94%
normalised viability (HCC1143; 10 nM): 73.5%
normalised viability (MDA-MB-231; 10 nM): 96.3%
normalised viability (DU-4475 [23]; 3 nM): 106%

CC(C)c1c(C(=O)Nc2ccccc2)c(-c2ccccc2)c(-c2ccc(F)cc2)n1CC[C@@H](O)C[C@@H](O)CC(=O)O [Atorvastatin]
drug sensitivity score (BT-474 [1]): 0
drug sensitivity score (HCC1937 [2]): 0
drug sensitivity score (MDA-MB-436 [3]): 0
drug sensitivity score (HCC1599 [4]): 0
drug sensitivity score (BT-549 [5]): 0
drug sensitivity score (DU-4475 [6]): 0

O=C(O)CCCc1ccc(N(CCCl)CCCl)cc1 [Chlorambucil]
drug sensitivity score (BT-474 [1]): 0
drug sensitivity score (HCC1937 [2]): 0
drug sensitivity score (MDA-MB-436 [3]): 2.34
drug sensitivity score (HCC1599 [4]): 0
drug sensitivity score (BT-549 [5]): 0
drug sensitivity score (DU-4475 [6]): 0
normalised viability (HDQ-P1 [7]; 1000 nM): 98.9%
normalised viability (MDA-MB-453 [8]; 1000 nM): 113%
normalised viability (CAL-51 [9]; 1000 nM): 101%
normalised viability (CAL-148 [10]; 1000 nM): 105%
normalised viability (CAL-85-1 [11]; 1000 nM): 97.5%
normalised viability (DU-4475 [12]; 1000 nM): 103%
normalised viability (HDQ-P1 [13]; 3 nM): 114%
normalised viability (SK-BR-3; 10 nM): 113%
normalised viability (BT-474 [14]; 10 nM): 120%
normalised viability (HCC1937 [15]; 10 nM): 51.5%
normalised viability (MDA-MB-453 [16]; 3 nM): 131%
normalised viability (MDA-MB-436 [17]; 10 nM): 89.7%
normalised viability (CAL-120; 10 nM): 104%
normalised viability (HCC1599 [18]; 10 nM): 108%
normalised viability (CAL-51 [19]; 3 nM): 115%
normalised viability (Hs578T; 10 nM): 111%
normalised viability (CAL-148 [20]; 3 nM): 98%
normalised viability (MFM-223; 10 nM): 95.5%
normalised viability (CAL-85-1 [21]; 3 nM): 101%
normalised viability (MDA-MB-468; 10 nM): 107%
normalised viability (BT-549 [22]; 10 nM): 80.9%
normalised viability (HCC1143; 10 nM): 83.5%
normalised viability (MDA-MB-231; 10 nM): 101%
normalised viability (DU-4475 [23]; 3 nM): 101%
